# Results as given in patent US20250228838A1, “METHODS OF USE OF CYCLIC AMIDE DERIVATIVES TO TREAT SIGMA RECEPTOR MEDIATED DISORDERS” (Minerva Neurosciences, Inc., priority 2010, published 2025).
# Columns and labels:
# dopamine = conditions: cited from earlier work
# sigma 2 receptor = sigma 2 receptor (Homo sapiens, UniProt Q5BJF2); conditions: cited from earlier work
# 5-HT2A = 5-HT2A (Homo sapiens, UniProt P28223); conditions: cited from earlier work
# [1] = tested on: patients with DSM-IV schizophrenia; test: Phase 2 double-blind, randomized, placebo-controlled clinical study of CYR-101; assay type: in vivo, human
# Method: A study was conducted using the compound of formula II, to examine the efficacy on schizophrenia and treatment of symptoms of schizophrenia. The study was a multi-center, inpatient and ambulatory, phase 2, double-blind, randomized, placebo-controlled proof of concept study of the compound of formula II in patients with DSM-IV schizophrenia. The study used 21 centers across three different countries. The study was designed to test the therapeutic efficacy of the compound of formula II on all dimensions of schizophrenic disease (E.g., positive, negative, and general symptoms, cognition, sleep, mood and anxiety). The study also examined the safety of the administered doses of the compound of formula II (also referred to herein as CYR-101), including heart repolarization (i.e., QT interval), weight change, adverse events, prolactin, and extrapyramidal symptoms). The study was conducted for a time period of three months. […] In one aspect of the study, the dosage of compound was titrated up to 32 mg b.i.d. The resulting data was analyzed one of three ways: 1.) Safety set; 2.) Full analysis set, with each patient having at least one PANSS evaluation after treatment initiation included in the efficacy analysis. The LOCF method is used; and 3.) Per protocol set, where for certain analyses, all patients having completed three months of treatment are included. ANCOVA followed by a contrast analysis at each time point were applied and in some cases, a non-parametric Wilcoxon test was used.
# Sequence of sigma 2 receptor (Q5BJF2 whole entry, species assumed): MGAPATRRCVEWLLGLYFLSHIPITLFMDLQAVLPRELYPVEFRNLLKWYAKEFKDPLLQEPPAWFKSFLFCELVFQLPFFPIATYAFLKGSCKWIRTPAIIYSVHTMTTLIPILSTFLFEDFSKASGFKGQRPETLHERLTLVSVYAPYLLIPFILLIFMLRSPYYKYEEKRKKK
# Sequence of 5-HT2A (P28223 whole entry, species assumed): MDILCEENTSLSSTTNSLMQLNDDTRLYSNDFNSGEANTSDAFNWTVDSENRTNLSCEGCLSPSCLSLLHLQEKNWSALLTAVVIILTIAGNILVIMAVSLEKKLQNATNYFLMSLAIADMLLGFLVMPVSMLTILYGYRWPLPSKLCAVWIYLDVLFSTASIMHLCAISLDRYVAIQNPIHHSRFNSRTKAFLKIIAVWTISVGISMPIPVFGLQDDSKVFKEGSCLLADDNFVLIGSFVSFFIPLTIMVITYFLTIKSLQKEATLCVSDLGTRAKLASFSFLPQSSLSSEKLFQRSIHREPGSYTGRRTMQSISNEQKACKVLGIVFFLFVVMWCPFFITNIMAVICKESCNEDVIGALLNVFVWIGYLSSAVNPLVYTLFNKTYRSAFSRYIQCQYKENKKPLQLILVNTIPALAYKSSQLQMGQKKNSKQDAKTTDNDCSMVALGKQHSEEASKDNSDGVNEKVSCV
structure (smiles),measurement,setting,value
"O=C(CN1CCC(CN2Cc3ccccc3C2=O)CC1)c1ccc(F)cc1 [CYR-101, 2-[[1-[2-(4-Fluorophenyl)-2-oxoethyl]piperidin-4-yl]methyl]isoindolin-1-one]",dopamine binding,dopamine,devoid of dopamine binding properties
same,Ki,"sigma 2 receptor; Table 3 of U.S. Pat. No. 7,166,617, read-out: affinity for the sigma 2 receptor",13 nM
same,mode of action at sigma 2,sigma 2 receptor,antagonist
same,sigma 2 selectivity of receptor binding,sigma 2 receptor,sigma 2-selective receptor binding
same,mode of action at 5-HT2A,5-HT2A,antagonist
same,QT interval,"[1]; doses up to 32 mg b.i.d., clinically acceptable limits E.g. 10-15 milliseconds or less",did not cross clinically acceptable limits
same,"cognitive performances assessed by BACS, versus placebo",[1]; full analysis set (FAS),"no differences between the placebo group and the CYR-101 group, except for the Token motor task"
same,"cognitive performances assessed by BACS, versus placebo","[1]; per protocol set (PPC) at D84, Token motor task, list learning task, verbal fluency, processing speed, not statistically significant",slight difference in favour of CYR-101 group
same,duration of continued improvement in both positive and negative symptoms,[1]; schizophrenic patients,continued for more than twelve weeks
same,effect on cognition,[1]; schizophrenic patients,positive effect on cognition
same,"mood, anxiety and sleep",[1]; schizophrenic patients,"some improvements of mood, anxiety and sleep"
same,improvement in positive symptoms,"[1]; schizophrenic patients, PANSS",did not improve until after the first four weeks of treatment
same,improvement in negative symptoms,"[1]; schizophrenic patients, PANSS, course of treatment","observed immediately, and continued through the course of treatment"
same,"emergence or worsening of extrapyramidal symptoms, CYR-101 versus placebo","[1]; schizophrenic patients, three months, titrated up to 32 mg b.i.d.",no significant difference
same,number of SAE in the active treatment group,"[1]; three SAE in total, two in placebo group, unlikely related to CYR-101",one
